Laboratory results as given in patent US20020035106A1, “Use of potassium channel agonists for reducing fat food consumption” (priority 2000, published 2002).

Assays:
[1] = test system: fed male obese Zucker rat; experiment: The snacking model: consumption of a palatable high fat or low fat meal; assay type: in vivo
From the text: Rats are habituated to the presence of a palatable high fat meal (Research diets 45% fat D12451) or another palatable low fat meal (Research diets 10% fat D12450B) in their home cage during four hours in the morning two times a week, 9-13a.m. The rats feed ad libitum on rat chow (Altromin #1324, 4% fat) outside the hours of the session and water is present adlibitum. The consumption of the meal is monitored, and as it stabilises, by 7-9 sessions, the animal is ready for use.
The animals are tested two times a week, and the baseline is re-established within 24h. During the experimental session, the compound is administered 30 minutes before the session starts. Food and water intake is monitored at 2 and 4 hours after the meal is presented.

[2] = test system: hyperinsulinemic obese individuals; details: 8 weeks treatment; cited from earlier work
[3] = molecular target: T1, KATP-channels on pancreatic beta-cells (Homo sapiens, UniProt Q09428); details: by activation of KATP-channels on pancreatic beta-cells; cited from earlier work
T1 construct: KATP-channels on pancreatic beta-cells; host or cells: pancreatic beta-cells (endogenous)
T1 sequence (Q09428 whole entry): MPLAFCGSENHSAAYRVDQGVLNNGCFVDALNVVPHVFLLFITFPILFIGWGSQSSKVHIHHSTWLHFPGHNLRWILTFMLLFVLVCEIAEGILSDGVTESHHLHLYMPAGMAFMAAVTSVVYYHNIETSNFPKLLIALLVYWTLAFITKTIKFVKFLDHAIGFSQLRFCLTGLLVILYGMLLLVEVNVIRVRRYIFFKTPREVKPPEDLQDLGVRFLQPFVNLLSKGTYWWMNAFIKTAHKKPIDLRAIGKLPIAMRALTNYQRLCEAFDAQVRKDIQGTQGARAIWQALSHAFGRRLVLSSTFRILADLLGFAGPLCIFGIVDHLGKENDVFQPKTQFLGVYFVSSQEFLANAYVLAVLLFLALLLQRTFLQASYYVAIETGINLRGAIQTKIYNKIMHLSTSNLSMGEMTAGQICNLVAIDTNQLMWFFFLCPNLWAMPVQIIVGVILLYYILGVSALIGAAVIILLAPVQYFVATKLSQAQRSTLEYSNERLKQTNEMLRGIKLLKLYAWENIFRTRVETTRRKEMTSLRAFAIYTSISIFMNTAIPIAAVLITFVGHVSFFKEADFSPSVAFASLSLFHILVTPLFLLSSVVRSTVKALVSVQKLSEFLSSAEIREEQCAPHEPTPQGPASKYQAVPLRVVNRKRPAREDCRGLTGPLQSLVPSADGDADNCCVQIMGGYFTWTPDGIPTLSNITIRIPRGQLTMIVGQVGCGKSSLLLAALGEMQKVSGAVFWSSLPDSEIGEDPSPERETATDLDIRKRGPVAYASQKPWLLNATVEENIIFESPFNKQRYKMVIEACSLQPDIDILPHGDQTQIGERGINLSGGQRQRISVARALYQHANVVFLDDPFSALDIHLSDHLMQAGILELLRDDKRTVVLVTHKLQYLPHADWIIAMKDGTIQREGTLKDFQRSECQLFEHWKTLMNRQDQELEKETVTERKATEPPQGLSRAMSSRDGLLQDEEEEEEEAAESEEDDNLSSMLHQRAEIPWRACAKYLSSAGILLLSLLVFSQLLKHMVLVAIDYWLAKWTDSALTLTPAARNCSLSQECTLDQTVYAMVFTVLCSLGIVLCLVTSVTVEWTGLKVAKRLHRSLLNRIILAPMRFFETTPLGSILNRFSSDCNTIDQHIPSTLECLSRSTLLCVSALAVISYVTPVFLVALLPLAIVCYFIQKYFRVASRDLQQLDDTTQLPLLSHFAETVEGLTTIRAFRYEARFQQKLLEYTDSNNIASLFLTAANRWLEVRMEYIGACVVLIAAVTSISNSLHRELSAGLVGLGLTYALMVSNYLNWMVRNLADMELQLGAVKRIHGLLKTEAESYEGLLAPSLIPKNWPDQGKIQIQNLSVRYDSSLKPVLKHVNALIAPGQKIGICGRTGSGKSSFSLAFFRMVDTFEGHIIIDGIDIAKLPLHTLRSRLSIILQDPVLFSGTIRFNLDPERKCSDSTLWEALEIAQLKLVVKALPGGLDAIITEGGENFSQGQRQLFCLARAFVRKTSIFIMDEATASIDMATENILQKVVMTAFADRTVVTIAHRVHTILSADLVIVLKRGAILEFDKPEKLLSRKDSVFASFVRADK
T1 sequence (Q14654 whole entry partner): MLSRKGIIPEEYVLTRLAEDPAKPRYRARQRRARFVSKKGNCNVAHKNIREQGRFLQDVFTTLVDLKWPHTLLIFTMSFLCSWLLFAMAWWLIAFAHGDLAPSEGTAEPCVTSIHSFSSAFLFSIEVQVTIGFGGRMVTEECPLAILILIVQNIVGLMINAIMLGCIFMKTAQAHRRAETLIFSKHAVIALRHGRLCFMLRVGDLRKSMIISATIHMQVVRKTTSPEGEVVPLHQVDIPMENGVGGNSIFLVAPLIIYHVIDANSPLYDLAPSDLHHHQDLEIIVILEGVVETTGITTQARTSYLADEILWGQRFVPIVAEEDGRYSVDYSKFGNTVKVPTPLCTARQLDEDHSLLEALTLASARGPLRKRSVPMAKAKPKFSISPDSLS

obese Zucker rats = details: cited from earlier work
mice = details: intracerebroventricular administration; cited from earlier work
rats = details: cited from earlier work
[4] = 30 mg/kg PO admin., 30 minutes before session

## CC1(NC2=NS(=O)(=O)c3sc(Cl)cc3N2)CC1 [6-Chloro-3-(1-methylcyclopropyl)amino-4H-thieno[3,2-e]-1,2,4-thiadiazine 1,1-dioxide]
[1]; 5 mg/kg PO admin.
  reduced consumption of a high fat meal (45 kcal % fat): 44%
  reduced consumption of a low fat meal (10 kcal % fat): 15%
[1]; 15 mg/kg PO admin.
  reduced consumption of a high fat meal (45 kcal % fat): 64%
  reduced consumption of a low fat meal (10 kcal % fat): 57%
[1]; [4]
  reduced consumption of a high fat meal (45 kcal % fat): 86%
  reduced consumption of a low fat meal (10 kcal % fat): 75%

## CC(C)NC1=NS(=O)(=O)c2sc(Cl)cc2N1 [6-Chloro-3-isopropylamino-4H-thieno[3,2-e]-1,2,4-thiadiazine 1,1-dioxide]
[1]; [4]
  reduced consumption of a high fat meal (45 kcal % fat): 77%
  reduced consumption of a low fat meal (10 kcal % fat): 61%

## CC1=Nc2ccc(Cl)cc2S(=O)(=O)N1 [Diazoxide, 7-chloro-3-methyl-2H-1,2,4-benzothiadiazine 1,1-dioxide]
[2]
  antiobesity effect: significant antiobesity effect
[3]
  insulin release: inhibit insulin release
Obese Zucker rats; adipose tissue of Zucker rats
  leptin and lipid metabolising enzymes: down-regulate leptin and lipid metabolising enzymes
Obese Zucker rats; obese Zucker rats
  glucose tolerance: improve glucose tolerance
  insulin receptor binding: increase insulin receptor binding
  insulin secretion: decrease insulin secretion
  weight gain: decrease weight gain
[1]; [4]
  reduced consumption of a high fat meal (45 kcal % fat): 53%
  reduced consumption of a low fat meal (10 kcal % fat): 42%

## CC1(C)Oc2ccc(C#N)cc2C(N2CCCC2=O)C1O (stereo not drawn) [cromakalim]
mice
  intake of food: increase to intake of food
rats; intraperitonal administration
  intake of food: reduces the intake of food

## COc1ccc(Cl)cc1C(=O)NCCc1ccc(S(=O)(=O)NC(=O)NC2CCCCC2)cc1 [glibenclamide]
rats; central administration
  food intake: reduce food intake

## CC(N/C(=N\C#N)Nc1ccncc1)C(C)(C)C (stereo not drawn) [pinacidil]
mice
  intake of food: increase to intake of food
